Data: patent publication US20230114241A1, “METHODS OF TREATING EPILEPSY USING THE SAME” (Trevena, Inc., priority 2019, published 2023)

These compounds were tested against human sphingosine-1-phosphate receptor 1 (S1P1) (Homo sapiens, UniProt P21453) (assay: Inhibition of cAMP production (HTRF cAMP HiRange), S1P1 CHO-K1 cells). Conditions: inhibition of cAMP production, S1P1; read-out: hS1P1 CAMP pEC50 (converted).
Format: cell-based
Description: Stable clonal Chinese hamster ovary K1 (CHO-K1) cells co-expressing EA-β-arrestin2 and the human sphingosine-1-phosphate receptor 1 (NM_001400, S1P1) with a C-terminal Prolink™ tag were purchased from DiscoverX corporation (Cat #: 93-0207C2).
Cell lines were cultured in AssayComplete™ Media 6 (DiscoverX Corporation, Cat #: 920018GF2) at 37° C. and 5% CO2 in a humidified CO2 and temperature-controlled incubator. To begin assay plating, cells were washed with Dulbecco's phosphate buffered saline (CellGro, Cat #: 21-031-CV) and lifted from the culturing flask by incubation (37° C., 5 min) with CellStripper (Cellgro, Cat #: 25-056-CI). […] Plated cells were incubated overnight at 37° C. and 5% CO2 in a humidified CO2 and temperature-controlled incubator.
Agonist-promoted G-protein responses were determined by measuring changes in intracellular cAMP using the HTRF® cAMP HiRange kit (CisBio, Cat #: 62AM6PEJ) based on time-resolved fluorescence resonance energy transfer (TR-FRET) technology. […] Following a 30-minute incubation at 37° C. and 5% CO2 in a humidified CO2 and temperature-controlled incubator, the components of the cAMP HiRange kit were added as per the manufacturer's instructions. After an hour incubation at room temperature, plates were analyzed by a BMG PheraStar microplate reader.
These values are normalized to fingolimod, a known agonist of the sphingosine-1-phosphate 1 receptor.

human sphingosine-1-phosphate receptor 1 (S1P1), sequence (P21453 whole entry): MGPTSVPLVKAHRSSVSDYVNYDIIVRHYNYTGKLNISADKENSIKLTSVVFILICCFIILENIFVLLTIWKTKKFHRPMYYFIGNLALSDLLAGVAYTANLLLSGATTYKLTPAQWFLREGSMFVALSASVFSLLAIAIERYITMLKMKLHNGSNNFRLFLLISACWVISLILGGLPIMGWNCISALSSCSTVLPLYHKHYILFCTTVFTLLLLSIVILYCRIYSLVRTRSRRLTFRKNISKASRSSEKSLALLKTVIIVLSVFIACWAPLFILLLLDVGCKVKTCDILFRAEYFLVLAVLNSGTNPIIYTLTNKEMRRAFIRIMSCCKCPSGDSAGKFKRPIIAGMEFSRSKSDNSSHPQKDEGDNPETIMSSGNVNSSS

EC50	SMILES
> 316 nM	Cc1ccccc1-c1cc(-c2ccc3c(c2)nnn3C(C)C)n(C)c1 [Compound 517, 5-[1-methyl-4-(2-methylphenyl)-1H-pyrrol-2-yl]-1-(propan-2-yl)-1H-1,2,3-benzotriazole]
> 316 nM	COc1cccc(-c2coc(-c3ccc4c(c3)nnn4C(C)C)n2)c1 [Compound 385, 5-[4-(3-methoxyphenyl)-1,3-oxazol-2-yl]-1-(propan-2-yl)-H-1,2,3-benzotriazole]
< 316 nM	N#Cc1cc(-c2nnc(-c3ccc4[nH]cnc4c3)o2)ccc1NC(CF)CF [Compound 600, 5-[5-(1H-1,3-benzo-diazol-5-yl)-1,3,4-oxadiazol-2-yl]-2-[(1,3-difluoropropan-2-yl)amino]benzonitrile]
< 316 nM	CC(C)n1nnc2cc(-c3nc(-c4ccccc4C(F)(F)F)co3)ccc21 [Compound 432, 1-(propan-2-yl)-5-{4-[2-(trifluoromethyl)phenyl]-1,3-oxazol-2-yl}-1H-1,2,3-benzotriazole]
< 316 nM	CC(C)n1nnc2cc(-c3nc(-c4ccc5nc[nH]c5c4)no3)ccc21 [Compound 511, 5-[3-(1H-1,3-benzodiazol-6-yl)-1,2,4-oxadiazol-5-yl]-1-(propan-2-yl)-1H-1,2,3-benzotriazole]
> 316 nM	CNc1ccccc1-c1coc(-c2ccc3c(c2)nnn3C(C)C)n1 [Compound 587, N-methyl-2-{2-[1-(propan-2-yl)-1H-1,2,3-benzotriazol-5-yl]-1,3-oxazol-4-yl}aniline]
> 316 nM	Cc1nccnc1-c1nc(-c2ccc3c(c2)nnn3C(C)(C)CO)no1 [Compound 641, 2-methyl-2-(5-(5-(3-methyl-pyrazin-2-yl)-1,2,4-oxadiazol-3-yl)-1H-benzo[d][1,2,3]triazol-1-yl)propan-1-ol]
> 316 nM	COCCn1cc(-c2ccccc2C)cc1-c1ccc2c(c1)nnn2C(C)C [Compound 534, 5-[1-(2-methoxyethyl)-4-(2-methylphenyl)-1H-pyrrol-2-yl]-1-(propan-2-yl)-1H-1,2,3-benzotriazole]
< 316 nM	CC(C)n1nnc2cc(-c3nc4c(o3)CCc3sccc3-4)ccc21 [Compound 456, 4-[1-(propan-2-yl)-1H-1,2,3-benzotriazol-5-yl]-5-oxa-10-thia-3-azatricyclo[7.3.0.0^2,6] dodeca-1(9),2(6),3,11-tetraene]
< 316 nM	CCC1(CC)CC(=O)c2cc(-c3nc(-c4ccsc4)no3)ccc2N1 [Compound 554, 2,2-diethyl-6-(3-(thiophen-3-yl)-1,2,4-oxadiazol-5-yl)-2,3-dihydroquinolin-4(1H)-one]
> 316 nM	CC(C)(O)Cn1nnc2cc(-c3nc(-c4cccc5cc[nH]c45)no3)ccc21 [Compound 577, 1-{5-[3-(1H-indol-7-yl)-1,2,4-oxadiazol-5-yl]-1H-1,2,3-benzotriazol-1-yl}-2-methylpropan-2-ol]
< 316 nM	N#Cc1cc(-c2nnc(-c3ccc4[nH]cnc4c3)o2)ccc1NC1CC1 [Compound 598, 5-[5-(1H-1,3-benzo-diazol-5-yl)-1,3,4-oxadiazol-2-yl]-2-(cyclopropyl-amino)benzonitrile]

Same assay, conditions: inhibition of cAMP production; potency; read-out: hS1P1 CAMP pEC50 (converted)

SMILES	EC50
Cc1ccncc1-c1noc(-c2ccc3nnn(C(C)C)c3c2)n1 [Compound 264, 6-[3-(4-methylpyridin-3-yl)-1,2,4-oxadiazol-5-yl]-1-(propan-2-yl)-1H-1,2,3-benzotriazole]	> 316 nM
CCC1(CC)CC(=O)c2cc(-c3nc(-c4ccc(Cl)cc4)no3)ccc2O1 [Compound 68, 6-[3-(4-chlorophenyl)-1,2,4-oxadiazol-5-yl]-2,2-diethyl-chroman-4-one]	> 316 nM
Cc1cc(C)cc(-c2noc(-c3ccc4c(c3)nnn4C(C)C)n2)c1 [Compound 204, 5-[3-(3,5-dimethy-lphenyl)-1,2,4-oxadiazol-5-yl]-1-(propan-2-yl)-1H-1,2,3-benzotriazole]	> 316 nM
Cc1ccc(-c2nc(-c3ccc4c(c3)nnn4C(C)C)no2)cn1 [Compound 119, 3-(1-isopropyl-1H-benzo[d][1,2,3]triazol-5-yl)-5-(6-methyl-pyridin-3-yl)-1,2,4-oxadiazole]	> 316 nM
Cc1ncc(-c2nc(-c3ccc4c(c3)nnn4C(C)C)no2)nc1C [Compound 133, 5-(5,6-dimethylpyrazin-2-yl)-3-(1-isopropyl-1H-benzo[d][1,2,3]triazol-5-yl)-1,2,4-oxadiazole]	> 316 nM
Cc1ccccc1-c1noc(-c2ccc3c(c2)nnn3CC(C)(C)O)n1 [Compound 139, 2-methyl-1-{5-[3-(2-methylphenyl)-1,2,4-oxadiazol-5-yl]-1H-1,2,3-benzotriazol-1-yl}propan-2-ol]	< 316 nM
CCC1(CC)CC(=O)c2cc(-c3nnc(-c4ccccc4OC)s3)ccc2O1 [Compound 178, 2,2-diethyl-6-(5-(2-methoxyphenyl)-1,3,4-thiadiazol-2-yl)chroman-4-one]	> 316 nM
CCCCC1(CCCC)CC(=O)c2cc(-c3nc(-c4cccnc4)no3)ccc2O1 [Compound 188, 2,2-dibutyl-6-[3-(pyridin-3-yl)-1,2,4-oxadiazol-5-yl]-3,4-dihydro-2H-1-benzo-pyran-4-one]	> 316 nM
COc1ccccc1-c1nnc(-c2ccc3c(c2)oc(=O)n3C)o1 [Compound 350, 6-[5-(2-methoxyphenyl)-1,3,4-oxadiazol-2-yl]-3-methyl-2,3-dihydro-1,3-benzoxazol-2-one]	> 316 nM
CC1(C)CCC2(CC1)CC(=O)c1cc(-c3nc(-c4cccnc4)no3)ccc1O2 [Compound 58, 4′,4′-dimethyl-6-[3-(pyridin-3-yl)-1,2,4-oxadiazol-5-yl]-3,4-dihydrospiro[1-benzopyran-2,1′-cyclohexane]-4-one]	> 316 nM
FC(F)(F)c1cc(-c2noc(-c3ccc4c(c3)nnn4C3CC3)n2)ccc1OCc1ccccc1 [Compound 85, 5-{3-[4-(benzyloxy)-3-(trifluoromethyl)phenyl]-1,2,4-oxadiazol-5-yl}-1-cyclopropyl-1H-1,2,3-benzotriazole]	> 316 nM
Cc1ccccc1-c1cnc(-c2ccc3c(c2)nnn3C(C)C)s1 [Compound 216, 2-(1-isopropyl-benzotriazol-5-yl)-5-(o-tolyl)thiazole]	> 316 nM
COCC1(COC)CC(=O)c2cc(-c3nc(-c4cccnc4)no3)ccc2O1 [Compound 186, 2,2-bis(methoxy-methyl)-6-[3-(pyridin-3-yl)-1,2,4-oxadiazol-5-yl]-3,4-dihydro-2H-1-benzopyran-4-one]	> 316 nM
C=CCNc1ccc(-c2nc(-c3ccc(NS(C)(=O)=O)cc3)no2)cc1C#N [Compound 149, N-(4-(5-(4-(allylamino)-3-cyanophenyl)-1,2,4-oxadiazol-3-yl)phenyl) methanesulfonamide]	< 316 nM
Clc1ncccc1-c1noc(-c2ccc3c(c2)nnn3C2CCCC2)n1 [Compound 198, 5-[3-(2-chloro-pyridin-3-yl)-1,2,4-oxadiazol-5-yl]-1-cyclopenty1-1H-1,2,3-benzotriazole]	< 316 nM
CCc1ncc(-c2noc(-c3ccc4c(c3)nnn4C(C)C)n2)cn1 [Compound 135, 5-[3-(2-ethylpyrimidin-5-yl)-1,2,4-oxadiazol-5-yl]-1-(propan-2-yl)-1H-1,2,3-benzotriazole]	> 316 nM

More lines, now with the values ahead:

EC50	SMILES
> 316 nM	COc1cc(-c2noc(-c3ccc4c(c3)nnn4C3CCCC3)n2)ccn1 [Compound 281, 1-cyclopentyl-5-[3-(2-methoxypyridin-4-yl)-1,2,4-oxadiazol-5-yl]-1H-1,2,3-benzotriazole]
< 316 nM	C=C(F)CNc1ccc(-c2nc(-c3ccc4c(c3)CCC(=O)N4)no2)cc1C#N [Compound 346, 2-[(2-fluoroprop-2-en-1-yl)amino]-5-[3-(2-oxo-1,2,3,4-tetrahydro-quinolin-6-yl)-1,2,4-oxadiazol-5-yl]benzonilrile]
> 316 nM	c1ccc(Oc2ccc(-c3noc(-c4ccc5c(c4)nnn5C4CC4)n3)cc2)cc1 [Compound 285, 1-cyclopropyl-5-[3-(4-phenoxyphenyl)-1,2,4-oxadiazol-5-yl]-1H-1,2,3-benzotriazole]
> 316 nM	CCC1(CC)CC(=O)c2cc(-c3nc(-c4cccnc4)ns3)ccc2O1 [Compound 309, 2,2-diethyl-6-(3-(pyridin-3-yl)-1,2,4-thiadiazol-5-yl)chroman-4-one]
> 316 nM	c1ccc(-c2noc(-c3ccc4c(c3)nnn4C3CCCCC3)n2)cc1 [Compound 292, 1-cyclohexyl-5-(3-phenyl-1,2,4-oxadiazol-5-yl)-1H-1,2,3-benzotriazole]
< 316 nM	CC(F)CNc1ccc(-c2nc(-c3ccc4c(c3)CCC(=O)N4)no2)cc1C#N (stereo not drawn) [Compound 348, 2-[(2-fluoropropyl)amino]-5-[3-(2-oxo-1,2,3,4-tetrahydroquinolin-6-yl)-1,2,4-oxadiazol-5-yl]benzonitrile]
> 316 nM	COc1ccc(-c2nc(-c3ccc4c(c3)nnn4C3CCCC3)no2)cc1OC [Compound 275, 3-(1-cyclopentyl-1H-benzo[d][1,2,3]triazol-5-yl)-5-(3,4-dimethoxyphenyl)-1,2,4-oxadiazole]
< 316 nM	Cc1ccccc1-c1noc(-c2ccc3c(cnn3C(C)C)c2)n1 [Compound 329, 5-(1-isopropyl-1H-indazol-5-yl)-3-(o-tolyl)-1,2,4-oxadiazole]
